Values quoted from earlier work as cited in patent publication US20120071440A1, “Pharmaceutical Composition For Enhancing Adiponectin Production And Food Useful Therefor” (priority 2009, published 2012).

Tested on: adiponectin
Conditions: reported in Diabetes Research and Clinical Practice 2004

Q: For `Cn1c(=O)c2c(ncn2C)n(C)c1=O` [caffeine], which adiponectin production is on record?
A: capable of producing adiponectin, but this effect is not large
